This passage reports IC50 results from patent publication US9212182B2, “Bicyclic sulfonamide compounds as sodium channel inhibitors” (AMGEN INC., priority 2013, dated 2015).

The target in this assay is Nav 1.7 (Homo sapiens (Human), UniProt Q15858). Description: in-vitro Nav 1.7 PX (IC50). The class given is cell-based.
Setting [1] is: in-vitro Nav 1.7 PX data (PatchXpress).

Like-named read-outs stand apart in the source and are kept apart here.

Sequence of Nav 1.7 (Q15858 whole entry): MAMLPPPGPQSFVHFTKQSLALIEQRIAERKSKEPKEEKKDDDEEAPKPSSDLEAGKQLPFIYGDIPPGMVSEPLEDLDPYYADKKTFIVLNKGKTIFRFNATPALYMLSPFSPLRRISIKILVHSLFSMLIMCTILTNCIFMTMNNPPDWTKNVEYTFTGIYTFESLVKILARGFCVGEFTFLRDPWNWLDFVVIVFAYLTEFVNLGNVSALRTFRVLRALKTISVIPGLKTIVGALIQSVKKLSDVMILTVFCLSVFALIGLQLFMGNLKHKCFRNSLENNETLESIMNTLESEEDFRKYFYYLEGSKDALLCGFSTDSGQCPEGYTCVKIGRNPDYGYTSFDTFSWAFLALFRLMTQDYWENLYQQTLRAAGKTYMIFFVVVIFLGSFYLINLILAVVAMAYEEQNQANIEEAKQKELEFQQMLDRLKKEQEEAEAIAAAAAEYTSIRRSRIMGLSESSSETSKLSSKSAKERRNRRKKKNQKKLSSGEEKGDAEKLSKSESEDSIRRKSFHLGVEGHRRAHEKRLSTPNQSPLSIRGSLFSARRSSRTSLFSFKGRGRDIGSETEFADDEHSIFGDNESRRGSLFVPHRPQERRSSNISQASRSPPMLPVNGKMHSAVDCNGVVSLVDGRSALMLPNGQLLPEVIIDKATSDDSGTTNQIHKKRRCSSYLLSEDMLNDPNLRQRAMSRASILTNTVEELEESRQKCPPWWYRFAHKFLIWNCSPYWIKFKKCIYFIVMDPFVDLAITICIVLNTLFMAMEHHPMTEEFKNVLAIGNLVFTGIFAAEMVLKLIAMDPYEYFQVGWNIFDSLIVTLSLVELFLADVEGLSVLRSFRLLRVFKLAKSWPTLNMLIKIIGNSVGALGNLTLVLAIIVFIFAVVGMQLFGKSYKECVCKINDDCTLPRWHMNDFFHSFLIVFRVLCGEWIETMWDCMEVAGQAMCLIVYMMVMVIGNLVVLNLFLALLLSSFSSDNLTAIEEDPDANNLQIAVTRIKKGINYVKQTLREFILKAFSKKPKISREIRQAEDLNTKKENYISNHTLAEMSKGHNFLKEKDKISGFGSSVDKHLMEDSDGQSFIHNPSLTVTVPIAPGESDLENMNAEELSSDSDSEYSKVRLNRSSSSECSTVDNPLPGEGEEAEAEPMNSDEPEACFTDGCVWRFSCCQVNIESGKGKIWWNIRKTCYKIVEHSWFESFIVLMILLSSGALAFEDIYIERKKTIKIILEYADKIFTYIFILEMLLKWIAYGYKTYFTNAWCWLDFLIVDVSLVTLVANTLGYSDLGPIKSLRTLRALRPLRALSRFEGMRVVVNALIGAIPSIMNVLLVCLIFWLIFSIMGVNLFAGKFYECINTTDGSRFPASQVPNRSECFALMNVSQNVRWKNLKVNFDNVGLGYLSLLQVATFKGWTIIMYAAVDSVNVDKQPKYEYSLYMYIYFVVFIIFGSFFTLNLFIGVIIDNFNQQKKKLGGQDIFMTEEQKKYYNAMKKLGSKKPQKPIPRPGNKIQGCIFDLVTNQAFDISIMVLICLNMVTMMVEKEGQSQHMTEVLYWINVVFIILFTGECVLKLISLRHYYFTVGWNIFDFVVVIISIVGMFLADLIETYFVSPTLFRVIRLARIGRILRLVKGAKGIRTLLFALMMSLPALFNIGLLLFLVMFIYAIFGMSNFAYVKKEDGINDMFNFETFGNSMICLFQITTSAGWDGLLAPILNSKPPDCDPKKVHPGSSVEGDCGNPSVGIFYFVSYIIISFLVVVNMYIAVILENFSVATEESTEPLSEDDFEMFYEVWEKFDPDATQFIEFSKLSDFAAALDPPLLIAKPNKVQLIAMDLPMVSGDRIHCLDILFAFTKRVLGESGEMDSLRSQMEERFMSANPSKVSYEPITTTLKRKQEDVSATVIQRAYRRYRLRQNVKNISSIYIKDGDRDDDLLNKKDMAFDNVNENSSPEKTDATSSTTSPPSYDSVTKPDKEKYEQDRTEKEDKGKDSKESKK

The term IC50 denotes the concentration needed to halve the response being measured. `COc1cc(-c2cc(C)cc(C)c2)c(F)cc1-n1c(=O)ccc2cc(S(=O)(=O)Nc3ccon3)ccc21` [Example 706, 1-(2-fluoro-5-methoxy-3′,5′-dimethyl-4-biphenylyl)-N-3-isoxazolyl-2-oxo-1,2-dihydro-6-quinolinesulfonamide]: the midpoint of inhibition (in-vitro Nav 1.7 PX data), the IC50, lay at 14 nM.
The compound `COc1cc(-c2ccc(Cl)c(C)c2)c(F)cc1-n1c(=O)ccc2cc(S(=O)(=O)Nc3cscn3)ccc21` [Example 932, 1-(4′-chloro-2-fluoro-5-methoxy-3′-methyl-4-biphenylyl)-2-oxo-N-1,3-thiazol-4-yl-1,2-dihydro-6-quinolinesulfonamide] gave an IC50 (in-vitro Nav 1.7 PX data) of 78 nM. This IC50 is about 5.6-fold higher than that of the compound before.
Compound `COc1cc(-c2cc(OC)c(-n3c(=O)ccc4cc(S(=O)(=O)Nc5ccon5)ccc43)cc2F)ccc1F` [Example 713, 1-(2,4′-difluoro-3′,5-dimethoxy-4-biphenylyl)-N-3-isoxazolyl-2-oxo-1,2-dihydro-6-quinolinesulfonamide] returned an IC50 (in-vitro Nav 1.7 PX data) of 15 nM.
On to `COc1ccc(-c2cncc(C(F)(F)F)c2)cc1-n1c(=O)ccc2cc(S(=O)(=O)Nc3ccon3)ccc21` [Example 492, N-3-isoxazolyl-1-(2-methoxy-5-(5-(trifluoromethyl)-3-pyridinyl)phenyl)-2-oxo-1,2-dihydro-6-quinolinesulfonamide], for which inhibition was half-maximal at 298 nM (IC50).
The same measure, in the same setting: the result for `Cc1cc(-c2cccc(F)c2)c(F)cc1-n1c(=O)ccc2cc(S(=O)(=O)Nc3ccon3)ccc21` (atropisomer, axis not shown; (P)) [Example 390, (P)-1-(2,3′-difluoro-5-methyl-[1,1′-biphenyl]-4-yl)-N-(isoxazol-3-yl)-2-oxo-1,2-dihydroquinoline-6-sulfonamide] reads 100 nM.
`COc1cc(C)cc(-c2cc(OC)c(-n3c(=O)ccc4cc(S(=O)(=O)Nc5ccon5)ccc43)cc2F)c1` [Example 708, 1-(2-fluoro-3′,5-dimethoxy-5′-methyl-4-biphenylyl)-N-3-isoxazolyl-2-oxo-1,2-dihydro-6-quinolinesulfonamide]: for the setting “in-vitro Nav 1.7 PX data”, the 50% inhibitory concentration (IC50) amounted to 10 nM. This lies in the double-digit nanomolar range.
With `COc1nc(NC[C@H]2CCC(C)(C)O2)c(Cl)cc1-n1c(=O)ccc2cc(S(=O)(=O)Nc3ccon3)ccc21` [Example 1232, 1-(5-chloro-6-((((2R)-5,5-dimethyltetrahydro-2-furanyl)methyl)amino)-2-methoxy-3-pyridinyl)-N-3-isoxazolyl-2-oxo-1,2-dihydro-6-quinolinesulfonamide, 1-(5-chloro-6-((((2S)-5,5-dimethyltetrahydro-2-furanyl)methyl)amino)-2-methoxy-3-pyridinyl)-N-3-isoxazolyl-2-oxo-1,2-dihydro-6-quinolinesulfonamide], 2940 nM corresponded to half-maximal inhibition (IC50).
`COc1cc(-c2cc(F)cc(F)c2)c(C)cc1-n1c(=O)cc(C)c2cc(S(=O)(=O)Nc3ccon3)ccc21` (atropisomer, axis not shown; (P)) [Example 570, (P)-1-(3′,5′-difluoro-5-methoxy-2-methyl-4-biphenylyl)-N-3-isoxazolyl-4-methyl-2-oxo-1,2-dihydro-6-quinolinesulfonamide] had a half-maximal inhibitory concentration (IC50) of 67 nM.
On to `COc1cc(Cl)c(-c2cc(F)cc(Cl)c2)cc1-n1c(=O)ccc2cc(S(=O)(=O)Nc3ccon3)ccc21` [Example 613, 1-(3′,6-dichloro-5′-fluoro-4-methoxy-3-biphenylyl)-N-3-isoxazolyl-2-oxo-1,2-dihydro-6-quinolinesulfonamide], for which, under “in-vitro Nav 1.7 PX data”, the IC50 came out at 18 nM.
Take `COc1ccnc(-c2cc(OC)c(-n3c(=O)ccc4cc(S(=O)(=O)Nc5ccon5)ccc43)cc2F)n1` [Example 808, 1-(5-fluoro-2-methoxy-4-(4-methoxy-2-pyrimidinyl)phenyl)-N-3-isoxazolyl-2-oxo-1,2-dihydro-6-quinolinesulfonamide]: for the setting “in-vitro Nav 1.7 PX data”, the IC50 stood at 3070 nM.
`COc1ccc(-c2cc(OC)c(-n3c(=O)ccc4cc(S(=O)(=O)Nc5ccon5)ccc43)cc2F)cn1` [Example 729, 1-(5-fluoro-2-methoxy-4-(6-methoxy-3-pyridinyl)phenyl)-N-3-isoxazolyl-2-oxo-1,2-dihydro-6-quinolinesulfonamide]: the midpoint of inhibition (in-vitro Nav 1.7 PX data), the IC50, lay at 598 nM.
Turning to `O=c1ccc2cc(S(=O)(=O)Nc3cnccn3)ccc2n1-c1ccc(-c2cc(F)cc(F)c2)cc1C1CC1` [Example 1044, 1-(3-cyclopropyl-3′,5′-difluoro-4-biphenylyl)-2-oxo-N-2-pyrazinyl-1,2-dihydro-6-quinolinesulfonamide], the IC50 under setting [1] turned out to be 2950 nM. This counts as single-digit micromolar.
Under “in-vitro Nav 1.7 PX data”, `COc1nc(OC2CCCC2)c(Cl)cc1-n1c(=O)ccc2cc(S(=O)(=O)Nc3ccon3)ccc21` [Example 825, 1-(5-chloro-6-(cyclopentyloxy)-2-methoxy-3-pyridinyl)-N-3-isoxazolyl-2-oxo-1,2-dihydro-6-quinolinesulfonamide] displayed a concentration for half-maximal inhibition (IC50) of 330 nM.
`COc1cc(-c2ccc(Cl)c(C)c2)c(Cl)cc1-n1c(=O)ccc2cc(S(=O)(=O)Nc3ccncn3)ccc21` (atropisomer, axis not shown; (P)) [Example 367, (P)-1-(2,4′-dichloro-5-methoxy-3′-methyl-4-biphenylyl)-2-oxo-N-4-pyrimidinyl-1,2-dihydro-6-quinolinesulfonamide] registered an IC50 (in-vitro PatchXpress (PX)) of 3 nM. That is a single-digit nanomolar value.
The compound `COc1cc(-c2ccc3c(c2)OCC3)ccc1-n1c(=O)ccc2cc(S(=O)(=O)Nc3ccon3)ccc21` [Example 809, 1-(4-(2,3-dihydro-1-benzofuran-6-yl)-2-methoxyphenyl)-N-3-isoxazolyl-2-oxo-1,2-dihydro-6-quinolinesulfonamide] yielded an IC50 (in-vitro Nav 1.7 PX data) of 122 nM.
Consider `COc1cc(C[C@H]2CCCOC2)c(F)cc1-n1c(=O)ccc2cc(S(=O)(=O)Nc3ccon3)ccc21` [Example 1118, 1-(5-fluoro-2-methoxy-4-((3R)-tetrahydro-2H-pyran-3-ylmethyl)phenyl)-N-3-isoxazolyl-2-oxo-1,2-dihydro-6-quinolinesulfonamide, 1-(5-fluoro-2-methoxy-4-((3S)-tetrahydro-2H-pyran-3-ylmethyl)phenyl)-N-3-isoxazolyl-2-oxo-1,2-dihydro-6-quinolinesulfonamide], for which the midpoint of inhibition (in-vitro Nav 1.7 PX data), the IC50, lay at 1480 nM.
`COc1cc(F)cc(-c2ccc(-n3c(=O)ccc4cc(S(=O)(=O)Nc5cccnn5)ccc43)c(OC)c2)c1` [Example 997, 1-(3′-fluoro-3,5′-dimethoxy-4-biphenylyl)-2-oxo-N-3-pyridazinyl-1,2-dihydro-6-quinolinesulfonamide] displayed a concentration for half-maximal inhibition (IC50) (in-vitro Nav 1.7 PX data) of 66 nM.
`COc1cc(C#CC2CCCC2)c(F)cc1-n1c(=O)ccc2cc(S(=O)(=O)Nc3ncccn3)ccc21` [Example 1134, 1-(4-(cyclopentylethynyl)-5-fluoro-2-methoxyphenyl)-2-oxo-N-2-pyrimidinyl-1,2-dihydro-6-quinolinesulfonamide] gave an IC50 (in-vitro Nav 1.7 PX data) of 26 nM.
In turn, `COc1cc(C[C@@H]2CCOC2)c(F)cc1-n1c(=O)ccc2cc(S(=O)(=O)Nc3ccon3)ccc21` (atropisomer, axis not shown; (P)) [Example 1235, (P)-1-(5-fluoro-2-methoxy-4-((3R)-tetrahydro-3-furanylmethyl)phenyl)-N-3-isoxazolyl-2-oxo-1,2-dihydro-6-quinolinesulfonamide] gave an IC50 of 2130 nM.
Same read-out and setting: the result for `COc1cc(-c2cc(F)cnc2OC)c(C)cc1-n1c(=O)ccc2cc(S(=O)(=O)Nc3ccon3)ccc21` (atropisomer, axis not shown; (M)) [Example 425, (M)-1-(4-(5-fluoro-2-methoxy-3-pyridinyl)-2-methoxy-5-methylphenyl)-N-3-isoxazolyl-2-oxo-1,2-dihydro-6-quinolinesulfonamide] reads 20100 nM.
`COc1cccc(-c2cc(OC)c(-n3c(=O)ccc4cc(S(=O)(=O)Nc5ccon5)ccc43)cc2F)c1` [Example 709, 1-(2-fluoro-3′,5-dimethoxy-4-biphenylyl)-N-3-isoxazolyl-2-oxo-1,2-dihydro-6-quinolinesulfonamide]: 47 nM corresponded to half-maximal inhibition (in-vitro Nav 1.7 PX data) (IC50).
`COc1cc(-c2cc(Cl)cnc2OC)c(F)cc1-n1c(=O)ccc2cc(S(=O)(=O)Nc3ncco3)ccc21` [Example 776, 1-(4-(5-chloro-2-methoxy-3-pyridinyl)-5-fluoro-2-methoxyphenyl)-N-1,3-oxazol-2-yl-2-oxo-1,2-dihydro-6-quinolinesulfonamide] returned an IC50 (in-vitro Nav 1.7 PX data) of 54 nM.
As to `COc1cc(-c2ccc(-n3c(=O)ccc4cc(S(=O)(=O)Nc5ncco5)ccc43)c(OC)c2)ccc1Cl` [Example 1039, 1-(4′-chloro-3,3′-dimethoxy-4-biphenylyl)-N-1,3-oxazol-2-yl-2-oxo-1,2-dihydro-6-quinolinesulfonamide], the midpoint of inhibition under setting [1], the IC50, lay at 149 nM.
In the case of `COc1cc(-c2cccc(OC(C)C)c2)ccc1-n1c(=O)ccc2cc(S(=O)(=O)Nc3cc(C)ncn3)ccc21` (atropisomer, axis not shown; (P)) [Example 1205, (P)-1-(3-methoxy-3′-(1-methylethoxy)-4-biphenylyl)-N-(6-methyl-4-pyrimidinyl)-2-oxo-1,2-dihydro-6-quinolinesulfonamide], half-maximal inhibition (IC50) required 290 nM. In other words, the sub-micromolar range.
`COc1cc(-c2cccc(C)c2)c(F)cc1-n1c(=O)ccc2cc(S(=O)(=O)Nc3cccnn3)ccc21` [Example 1108, 1-(2-fluoro-5-methoxy-3′-methyl-4-biphenylyl)-2-oxo-N-3-pyridazinyl-1,2-dihydro-6-quinolinesulfonamide] came in with a 50% inhibitory concentration (IC50) (in-vitro Nav 1.7 PX data) of 21 nM.
On to `COc1cc(-c2ccc(F)c(F)c2)ccc1-n1c(=O)ccc2cc(S(=O)(=O)Nc3ncccn3)ccc21` [Example 897, 1-(3′,4′-difluoro-3-methoxy-4-biphenylyl)-2-oxo-N-2-pyrimidinyl-1,2-dihydro-6-quinolinesulfonamide], for which the IC50 (in-vitro Nav 1.7 PX data) amounted to 100 nM. This IC50 lies about 4.8-fold higher than the previous one.
With `COc1ccc(F)c(-c2cc(OC)c(-n3c(=O)ccc4cc(S(=O)(=O)Nc5ncccn5)ccc43)cc2C)c1` [Example 965, 1-(2′-fluoro-5,5′-dimethoxy-2-methyl-4-biphenylyl)-2-oxo-N-2-pyrimidinyl-1,2-dihydro-6-quinolinesulfonamide], the IC50 (in-vitro Nav 1.7 PX data) turned out to be 74 nM.
With `COc1nc(OCC(F)(F)C(F)(F)F)c(Cl)cc1-n1c(=O)ccc2cc(S(=O)(=O)Nc3ccon3)ccc21` [Example 832, 1-(5-chloro-2-methoxy-6-(2,2,3,3,3-pentafluoropropoxy)-3-pyridinyl)-N-3-isoxazolyl-2-oxo-1,2-dihydro-6-quinolinesulfonamide], the midpoint of inhibition (in-vitro Nav 1.7 PX data), the IC50, lay at 161 nM.
